Experimental data: ChEMBL document CHEMBL1142714, “Synthesis and pharmacological evaluation of huprine-tacrine heterodimers: subnanomolar dual binding site acetylcholinesterase inhibitors” (J Med Chem, 2005)

How the values were obtained:
Acetylcholinesterase [1] = target: T1, Acetylcholinesterase (Bos taurus, UniProt P23795); test: Inhibitory concentration against Acetylcholinesterase from bovine erythrocytes after 45 min incubation
T1 sequence (P23795 whole entry): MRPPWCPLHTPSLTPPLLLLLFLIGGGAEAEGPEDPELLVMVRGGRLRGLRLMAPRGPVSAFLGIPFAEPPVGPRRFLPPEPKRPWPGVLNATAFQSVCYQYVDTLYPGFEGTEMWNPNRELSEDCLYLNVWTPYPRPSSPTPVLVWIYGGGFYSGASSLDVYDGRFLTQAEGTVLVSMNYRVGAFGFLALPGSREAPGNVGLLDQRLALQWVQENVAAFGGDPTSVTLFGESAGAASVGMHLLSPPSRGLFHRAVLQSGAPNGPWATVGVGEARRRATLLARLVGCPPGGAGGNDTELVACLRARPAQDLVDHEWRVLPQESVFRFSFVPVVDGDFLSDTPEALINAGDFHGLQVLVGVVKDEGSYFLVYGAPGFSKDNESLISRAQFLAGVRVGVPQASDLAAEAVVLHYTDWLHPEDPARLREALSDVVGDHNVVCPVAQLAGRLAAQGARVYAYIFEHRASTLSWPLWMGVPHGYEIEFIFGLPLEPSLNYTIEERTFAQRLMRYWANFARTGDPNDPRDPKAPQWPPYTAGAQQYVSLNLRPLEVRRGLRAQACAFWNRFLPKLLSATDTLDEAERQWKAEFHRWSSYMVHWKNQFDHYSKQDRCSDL

Acetylcholinesterase [2] = target: Acetylcholinesterase (Homo sapiens, UniProt P22303)
Description: Inhibitory concentration against Acetylcholinesterase from human erythrocytes

Cholinesterase = Cholinesterase (Homo sapiens, UniProt P06276)
Description: Inhibitory concentration against Butyrylcholinesterase from human erythrocytes

Acetylcholinesterase [3] = target: T1, Acetylcholinesterase

Chain of Cholinesterase (P06276 whole entry): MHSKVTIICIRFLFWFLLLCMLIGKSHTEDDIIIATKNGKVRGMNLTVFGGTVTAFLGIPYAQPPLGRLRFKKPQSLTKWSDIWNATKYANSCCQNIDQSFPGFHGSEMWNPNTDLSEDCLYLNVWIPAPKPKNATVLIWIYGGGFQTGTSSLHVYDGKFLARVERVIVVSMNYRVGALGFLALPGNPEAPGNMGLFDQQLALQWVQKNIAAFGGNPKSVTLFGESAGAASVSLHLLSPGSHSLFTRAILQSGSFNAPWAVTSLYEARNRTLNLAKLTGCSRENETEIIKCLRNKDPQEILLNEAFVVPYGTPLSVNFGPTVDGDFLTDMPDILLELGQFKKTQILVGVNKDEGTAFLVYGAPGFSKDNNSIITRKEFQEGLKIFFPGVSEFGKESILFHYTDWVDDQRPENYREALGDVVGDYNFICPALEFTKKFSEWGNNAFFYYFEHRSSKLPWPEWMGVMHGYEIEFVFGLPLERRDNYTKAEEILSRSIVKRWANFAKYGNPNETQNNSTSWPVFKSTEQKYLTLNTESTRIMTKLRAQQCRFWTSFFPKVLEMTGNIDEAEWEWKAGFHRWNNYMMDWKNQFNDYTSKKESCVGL
Chain of Acetylcholinesterase (Homo sapiens, UniProt P22303) (P22303 whole entry): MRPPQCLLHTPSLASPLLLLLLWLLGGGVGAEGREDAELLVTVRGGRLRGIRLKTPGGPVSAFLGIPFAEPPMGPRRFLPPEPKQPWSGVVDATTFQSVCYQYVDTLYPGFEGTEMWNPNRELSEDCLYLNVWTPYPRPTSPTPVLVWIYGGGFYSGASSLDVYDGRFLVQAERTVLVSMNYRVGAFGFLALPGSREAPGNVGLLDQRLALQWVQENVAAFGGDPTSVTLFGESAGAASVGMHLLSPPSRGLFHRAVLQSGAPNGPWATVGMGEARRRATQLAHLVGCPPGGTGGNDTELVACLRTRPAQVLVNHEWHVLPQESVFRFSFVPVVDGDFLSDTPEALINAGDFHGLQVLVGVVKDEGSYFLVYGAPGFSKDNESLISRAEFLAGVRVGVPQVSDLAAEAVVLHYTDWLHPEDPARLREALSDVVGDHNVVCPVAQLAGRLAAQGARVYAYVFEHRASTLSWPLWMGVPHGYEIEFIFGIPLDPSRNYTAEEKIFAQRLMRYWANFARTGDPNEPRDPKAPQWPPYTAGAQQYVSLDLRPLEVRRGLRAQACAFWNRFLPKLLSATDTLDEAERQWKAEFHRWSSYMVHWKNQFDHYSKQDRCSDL

Row | Compound | IC50 (Acetylcholinesterase [1]) | IC50 (Acetylcholinesterase [2]) | IC50 (Cholinesterase) | IC50 (Acetylcholinesterase [3])
1 | CC1=CC2Cc3nc4cc(Cl)ccc4c(NCCCCCCCCNc4c5c(nc6cc(Cl)ccc46)CCCC5)c3C(C1)C2 (stereo unspecified) | 1.31 nM | 0.4 nM | 7.8 nM | 2.09 nM
2 | CC1=CC2Cc3nc4cc(Cl)ccc4c(NCCCCCCNc4c5c(nc6ccccc46)CCCC5)c3C(C1)C2 (stereo unspecified) | 0.27 nM | 0.5 nM | 7.69 nM | 0.4 nM
3 | CC1=C[C@@H]2Cc3nc4cc(Cl)ccc4c(NCCCN(C)CCCCNc4c5c(nc6cc(Cl)ccc46)CCCC5)c3[C@H](C1)C2 | 0.44 nM | 0.29 nM | 31.1 nM | 0.54 nM
4 | CC1=CC2Cc3nc4cc(Cl)ccc4c(NCCCCCCNc4c5c(nc6cc(Cl)ccc46)CCCC5)c3C(C1)C2 (stereo unspecified) | 0.8 nM | 0.45 nM | 14 nM | 1.06 nM
5 | CC1=CC2Cc3nc4cc(Cl)ccc4c(NCCCCCCCNc4c5c(nc6cc(Cl)ccc46)CCCC5)c3C(C1)C2 (stereo unspecified) | 1.6 nM | 0.33 nM | 7.38 nM | 1.97 nM
6 | CC1=C[C@@H]2Cc3nc4cc(Cl)ccc4c(NCCCN(C)CCCCNc4c5c(nc6ccccc46)CCCC5)c3[C@H](C1)C2 | 0.26 nM | 0.32 nM | 16.4 nM | 0.33 nM
7 | CC1=CC2Cc3nc4cc(Cl)ccc4c(NCCCCCCCCNc4c5c(nc6ccccc46)CCCC5)c3C(C1)C2 (stereo unspecified) | 0.65 nM | 0.33 nM | 4.74 nM | 1.26 nM
8 | CCC1=CC2Cc3nc4ccccc4c(NCCCCCCCCNc4c5c(nc6ccccc46)CCCC5)c3C(C1)C2 (stereo unspecified) | 1.67 nM | 0.82 nM | 5.55 nM | 2.19 nM
9 | CC1=CC2Cc3nc4cc(Cl)ccc4c(NCCCCCCCNc4c5c(nc6ccccc46)CCCC5)c3C(C1)C2 (stereo unspecified) | 0.36 nM | 0.34 nM | 6.7 nM | 0.48 nM
